Counter-ions that a name gives are not always drawn.
Test system: HCT116
Details: 72 h
Summary of the method: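 After seeding at 250 cells per well in 1536-well plates, HCT116 cells were given 5 h to attach. CellTiter-Glo luminescence, scaled to 0% for vehicle and -100% for positive control, was pattern-corrected. Fitting with a four-parameter Hill model produced IC50 and maximal efficacy.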

Oc1cc(O)cc(O)c1 [1,3,5-Trihydroxybenzene dihydrate]
IC50 cell viability (ICRF193 0 nM): > 45.8 µM | IC50 cell viability (ICRF193 200 nM): > 45.8 µM

CCOc1c(N2CCOCC2)cnn(C)c1=O [Emorfazone]
IC50 cell viability (ICRF193 0 nM): > 45.8 µM | IC50 cell viability (ICRF193 200 nM): > 45.8 µM

CCN(CC)C(=S)SSC(=S)N(CC)CC [Disulfiram]
IC50 cell viability (ICRF193 0 nM): > 45.8 µM | IC50 cell viability (ICRF193 200 nM): > 45.8 µM

CC1(C)OC[C@@H](COC(=O)CCc2ccc(OC[C@@H](O)CNCCNC(=O)N3CCOCC3)cc2)O1 [Landiolol hydrochloride]
IC50 cell viability (ICRF193 0 nM): > 45.8 µM | IC50 cell viability (ICRF193 200 nM): > 45.8 µM

Brc1c(NC2=NCCN2)ccc2nccnc12 [Brimonidine]
IC50 cell viability (ICRF193 0 nM): > 45.8 µM | IC50 cell viability (ICRF193 200 nM): > 45.8 µM

C[C@@](Cc1ccc(O)c(O)c1)(NN)C(=O)O [Carbidopa]
IC50 cell viability (ICRF193 0 nM): > 45.8 µM | IC50 cell viability (ICRF193 200 nM): > 45.8 µM

CCCCCCCCCCCCCCCC(=O)OCCC1CCN(CCCN2c3ccccc3Sc3ccc(S(=O)(=O)N(C)C)cc32)CC1 [Pipothiazine palmitate]
IC50 cell viability (ICRF193 0 nM): > 45.8 µM | IC50 cell viability (ICRF193 200 nM): > 45.8 µM

CS(=O)(=O)Nc1cc2occ(NC=O)c(=O)c2cc1Oc1ccccc1 [Iguratimod]
IC50 cell viability (ICRF193 0 nM): > 45.8 µM | IC50 cell viability (ICRF193 200 nM): > 45.8 µM

C[C@]12C[C@H]3S[C@H]3C[C@@H]1CC[C@@H]1[C@@H]2CC[C@]2(C)[C@@H](O)CC[C@@H]12 [Epitiostanol]
IC50 cell viability (ICRF193 0 nM): > 45.8 µM | IC50 cell viability (ICRF193 200 nM): > 45.8 µM

C/C(=C\C(=O)OCCCCCCCCC(=O)O)C[C@@H]1OC[C@H](C[C@@H]2O[C@H]2[C@@H](C)[C@H](C)O)[C@@H](O)[C@H]1O [Mupirocin]
IC50 cell viability (ICRF193 0 nM): > 45.8 µM | IC50 cell viability (ICRF193 200 nM): > 45.8 µM

Cc1ncc(COP(=O)(O)O)c(CN)c1O [Pyridoxamine phosphate]
IC50 cell viability (ICRF193 0 nM): > 45.8 µM | IC50 cell viability (ICRF193 200 nM): > 45.8 µM

O=C(NC1CCN(CCc2c[nH]c3ccccc23)CC1)c1ccccc1 [Indoramin hydrochloride]
IC50 cell viability (ICRF193 0 nM): > 45.8 µM | IC50 cell viability (ICRF193 200 nM): > 45.8 µM

CNC[C@H](O)[C@@H](O)[C@H](O)[C@H](O)CO [Meglumine]
IC50 cell viability (ICRF193 0 nM): > 45.8 µM | IC50 cell viability (ICRF193 200 nM): > 45.8 µM

CC(=O)O[C@H]1Cc2ccccc2N(C(N)=O)c2ccccc21 [Eslicarbazepine (acetate)]
IC50 cell viability (ICRF193 0 nM): > 45.8 µM | IC50 cell viability (ICRF193 200 nM): > 45.8 µM

CCOC(=O)[C@H](CCc1ccccc1)N[C@@H](C)C(=O)N1[C@H](C(=O)O)C[C@H]2CCCC[C@@H]21 [TRANDOLAPRIL]
IC50 cell viability (ICRF193 0 nM): > 45.8 µM | IC50 cell viability (ICRF193 200 nM): > 45.8 µM

O=C(O[C@H]1CN2CCC1CC2)N1CCc2ccccc2[C@@H]1c1ccccc1 [Solifenacin (hydrochloride)]
IC50 cell viability (ICRF193 0 nM): > 45.8 µM | IC50 cell viability (ICRF193 200 nM): > 45.8 µM

CCOC(=O)c1ccc(C#Cc2ccc3c(c2)C(C)(C)CCS3)nc1 [Tazarotene]
IC50 cell viability (ICRF193 0 nM): > 45.8 µM | IC50 cell viability (ICRF193 200 nM): > 45.8 µM

CCC(=O)NCC[C@@H]1CCc2ccc3c(c21)CCO3 [Ramelteon]
IC50 cell viability (ICRF193 0 nM): > 45.8 µM | IC50 cell viability (ICRF193 200 nM): > 45.8 µM

C[n+]1ccccc1/C=N/O [Pralidoxime chloride]
IC50 cell viability (ICRF193 0 nM): > 45.8 µM | IC50 cell viability (ICRF193 200 nM): > 45.8 µM

CN[C@@H]1[C@H](O[C@H]2[C@H](O[C@H]3[C@H](O)[C@@H](O)[C@H](NC(=N)N)[C@@H](O)[C@@H]3NC(=N)N)O[C@@H](C)[C@]2(O)CO)O[C@@H](CO)[C@H](O)[C@H]1O [DIHYDROSTREPTOMYCIN [5mM]]
IC50 cell viability (ICRF193 0 nM): > 45.8 µM | IC50 cell viability (ICRF193 200 nM): > 45.8 µM

C[C@H]1NCc2cc(-c3ccc4c(=O)c(C(=O)O)cn(C5CC5)c4c3OC(F)F)ccc21 [Garenoxacin mesylate hydrate]
IC50 cell viability (ICRF193 0 nM): > 45.8 µM | IC50 cell viability (ICRF193 200 nM): > 45.8 µM
